The values that follow come from patent US20160378912A1, “STRUCTURE-BASED MODELING AND TARGET-SELECTIVITY PREDICTION” (EPIGENETX, LLC, priority 2013, published 2016).

The IC50 is the concentration that inhibits the measured activity by half. The pIC50 is −log10 of the IC50, conventionally taken in molar units.

The target of assay [1] is T1, HDAC8 (Homo sapiens, UniProt Q9BY41).
T1 sequence (Q9BY41 1-377): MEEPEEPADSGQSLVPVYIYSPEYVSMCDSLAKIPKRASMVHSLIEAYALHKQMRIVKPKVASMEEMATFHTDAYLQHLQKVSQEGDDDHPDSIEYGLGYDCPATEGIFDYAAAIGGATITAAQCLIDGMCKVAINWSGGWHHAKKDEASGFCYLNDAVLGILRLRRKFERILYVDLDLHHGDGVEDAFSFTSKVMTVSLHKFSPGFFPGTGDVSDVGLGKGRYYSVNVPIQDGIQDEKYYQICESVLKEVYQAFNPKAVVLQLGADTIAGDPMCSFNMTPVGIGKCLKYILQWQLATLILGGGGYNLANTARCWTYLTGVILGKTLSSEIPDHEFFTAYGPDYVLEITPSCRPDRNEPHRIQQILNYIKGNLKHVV
The following applies: cited from earlier work; for pIC50: training set composition.

The target of assay [2] is T2, HDAH (Alcaligenes sp., UniProt Q70I53).
T2 sequence (Q70I53 1-369): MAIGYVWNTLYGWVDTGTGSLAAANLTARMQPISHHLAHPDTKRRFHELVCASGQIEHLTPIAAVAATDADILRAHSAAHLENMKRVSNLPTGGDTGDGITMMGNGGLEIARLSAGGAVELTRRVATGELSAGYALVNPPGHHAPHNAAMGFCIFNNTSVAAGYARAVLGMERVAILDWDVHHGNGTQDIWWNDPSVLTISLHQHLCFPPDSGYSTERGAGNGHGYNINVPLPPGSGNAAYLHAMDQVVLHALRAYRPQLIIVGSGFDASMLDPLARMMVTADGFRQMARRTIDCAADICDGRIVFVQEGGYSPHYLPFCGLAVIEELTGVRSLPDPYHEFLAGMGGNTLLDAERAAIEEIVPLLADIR
The following applies: CTS; cited from earlier work.

Assay [3] has as its system HDAC isoforms. The assay is described as follows: HDAC inhibition profiled over several HDAC isoforms (experimental). The format is biochemical, human. The conditions noted are these: range of pIC50 over the profiled HDAC isoforms.
For assay [4], the target named is HDAC4 (Homo sapiens, UniProt P56524). The following applies: cited from earlier work; for pIC50: training set composition; for IC50: training set, read-out: HDACs inhibitory activities IC50.
For assay [5], the target named is T3, HDAC7 (Homo sapiens, UniProt Q8WUI4).
T3 sequence (Q8WUI4 1-952): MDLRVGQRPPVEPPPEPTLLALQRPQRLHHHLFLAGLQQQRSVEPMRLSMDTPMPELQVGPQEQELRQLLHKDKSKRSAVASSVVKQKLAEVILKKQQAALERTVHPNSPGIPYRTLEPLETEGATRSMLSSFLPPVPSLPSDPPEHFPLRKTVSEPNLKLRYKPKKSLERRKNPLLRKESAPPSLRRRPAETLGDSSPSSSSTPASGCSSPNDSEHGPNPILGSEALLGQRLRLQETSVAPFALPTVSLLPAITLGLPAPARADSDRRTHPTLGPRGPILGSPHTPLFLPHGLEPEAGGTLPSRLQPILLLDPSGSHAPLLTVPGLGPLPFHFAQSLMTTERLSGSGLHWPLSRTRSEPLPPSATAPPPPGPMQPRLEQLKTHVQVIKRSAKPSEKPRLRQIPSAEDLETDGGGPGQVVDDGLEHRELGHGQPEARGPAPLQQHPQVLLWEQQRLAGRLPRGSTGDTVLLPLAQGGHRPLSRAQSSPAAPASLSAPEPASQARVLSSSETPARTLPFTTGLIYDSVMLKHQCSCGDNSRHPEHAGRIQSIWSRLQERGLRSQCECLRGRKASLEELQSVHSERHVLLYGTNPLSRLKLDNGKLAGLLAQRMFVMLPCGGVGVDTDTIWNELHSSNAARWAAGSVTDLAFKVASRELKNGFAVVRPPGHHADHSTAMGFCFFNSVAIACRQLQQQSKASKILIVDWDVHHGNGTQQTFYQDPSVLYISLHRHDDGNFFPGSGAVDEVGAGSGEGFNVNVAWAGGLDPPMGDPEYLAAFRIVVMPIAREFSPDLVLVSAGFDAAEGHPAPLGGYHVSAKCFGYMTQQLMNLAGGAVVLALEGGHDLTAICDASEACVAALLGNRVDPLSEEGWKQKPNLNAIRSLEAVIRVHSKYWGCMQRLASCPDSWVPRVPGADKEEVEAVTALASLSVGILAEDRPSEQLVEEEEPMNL
The following applies: cited from earlier work.

Assay [6] deals with HDAC1 (Homo sapiens, UniProt Q13547). The conditions noted are these: cited from earlier work; for Exp. pIC50: MTS inhibitors.
Assay [7] deals with HDAC2 (Homo sapiens, UniProt Q92769). The following applies: cited from earlier work; for Exp. pIC50: MTS inhibitors.
Assay [8] addresses HDAC3 (Homo sapiens, UniProt O15379). The following applies: cited from earlier work.
The target in assay [9] is T4, HDAC6 (Homo sapiens, UniProt Q9UBN7).
T4 sequence (Q9UBN7 1-1215): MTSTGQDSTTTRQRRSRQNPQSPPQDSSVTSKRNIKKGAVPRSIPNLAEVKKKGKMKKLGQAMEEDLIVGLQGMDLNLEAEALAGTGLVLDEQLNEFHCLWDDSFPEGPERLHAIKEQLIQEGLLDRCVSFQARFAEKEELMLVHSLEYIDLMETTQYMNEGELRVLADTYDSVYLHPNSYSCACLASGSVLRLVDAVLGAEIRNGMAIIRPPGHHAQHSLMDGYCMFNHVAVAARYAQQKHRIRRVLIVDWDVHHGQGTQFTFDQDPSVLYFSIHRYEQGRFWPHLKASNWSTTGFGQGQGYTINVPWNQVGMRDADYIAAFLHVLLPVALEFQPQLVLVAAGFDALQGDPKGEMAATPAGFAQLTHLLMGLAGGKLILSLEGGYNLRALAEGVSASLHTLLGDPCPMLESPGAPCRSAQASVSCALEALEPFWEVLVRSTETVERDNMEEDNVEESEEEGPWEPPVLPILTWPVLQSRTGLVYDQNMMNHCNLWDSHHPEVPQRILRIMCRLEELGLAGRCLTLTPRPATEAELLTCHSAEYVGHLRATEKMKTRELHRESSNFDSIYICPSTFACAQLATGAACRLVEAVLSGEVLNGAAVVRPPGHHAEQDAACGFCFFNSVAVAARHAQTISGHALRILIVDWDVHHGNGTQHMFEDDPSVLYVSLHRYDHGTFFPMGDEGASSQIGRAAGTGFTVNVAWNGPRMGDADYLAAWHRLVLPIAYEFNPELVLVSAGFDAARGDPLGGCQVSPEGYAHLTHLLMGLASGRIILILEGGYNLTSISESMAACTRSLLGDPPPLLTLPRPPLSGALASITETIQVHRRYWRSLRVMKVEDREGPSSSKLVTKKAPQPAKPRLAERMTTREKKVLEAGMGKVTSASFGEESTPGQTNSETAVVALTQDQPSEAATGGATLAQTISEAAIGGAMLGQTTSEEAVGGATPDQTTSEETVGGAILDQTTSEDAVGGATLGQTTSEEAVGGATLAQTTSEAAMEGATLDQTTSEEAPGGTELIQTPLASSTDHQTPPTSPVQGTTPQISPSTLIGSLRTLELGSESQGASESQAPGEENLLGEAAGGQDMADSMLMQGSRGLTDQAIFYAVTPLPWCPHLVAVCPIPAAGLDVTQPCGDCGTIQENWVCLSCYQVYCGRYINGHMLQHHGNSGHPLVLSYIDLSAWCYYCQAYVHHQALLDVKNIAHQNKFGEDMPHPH
The following applies: cited from earlier work; for IC50: HDAC6, MTS, read-out: reported HDACs inhibitory activities IC50; for Exp. pIC50: MTS inhibitors.

The target of assay [10] is T5, HDAC10 (Homo sapiens, UniProt Q969S8).
T5 sequence (Q969S8 1-669): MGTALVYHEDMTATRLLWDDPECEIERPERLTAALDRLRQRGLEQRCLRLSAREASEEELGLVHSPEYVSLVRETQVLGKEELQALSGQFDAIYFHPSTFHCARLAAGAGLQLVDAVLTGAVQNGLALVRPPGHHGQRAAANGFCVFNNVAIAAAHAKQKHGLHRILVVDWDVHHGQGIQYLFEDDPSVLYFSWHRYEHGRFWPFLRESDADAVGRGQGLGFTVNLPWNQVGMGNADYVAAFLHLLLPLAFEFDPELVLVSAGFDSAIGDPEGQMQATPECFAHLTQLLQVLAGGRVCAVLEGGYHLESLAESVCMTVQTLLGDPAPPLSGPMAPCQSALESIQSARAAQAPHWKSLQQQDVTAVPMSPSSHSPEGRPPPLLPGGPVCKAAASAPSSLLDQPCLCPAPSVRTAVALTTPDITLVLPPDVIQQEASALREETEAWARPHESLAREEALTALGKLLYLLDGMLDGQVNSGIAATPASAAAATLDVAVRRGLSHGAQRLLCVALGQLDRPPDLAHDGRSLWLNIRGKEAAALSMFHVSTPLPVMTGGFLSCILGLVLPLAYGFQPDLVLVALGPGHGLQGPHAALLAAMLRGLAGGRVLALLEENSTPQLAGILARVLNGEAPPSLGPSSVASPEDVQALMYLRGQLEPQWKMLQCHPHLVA
The following applies: cited from earlier work; for Exp. pIC50: MTS inhibitors; for pIC50exp: experimental value of modeled complex; for pIC50: training set composition.

The mark [11] stands for this setting: co-crystallized ligand, read-out: IC50.
Where [12] appears, read: training set, read-out: HDACs inhibitory activities IC50.
Setting [13] is: MTS, read-out: reported HDACs inhibitory activities IC50.
The mark [14] stands for this setting: HDAC6, listed with HDAC6-1 complexes.
Where [15] appears, read: HDAC6, listed with HDAC6-2 complexes.

Like-named read-outs stand apart in the source and are kept apart here.

Sequence of HDAC4 (P56524 whole entry): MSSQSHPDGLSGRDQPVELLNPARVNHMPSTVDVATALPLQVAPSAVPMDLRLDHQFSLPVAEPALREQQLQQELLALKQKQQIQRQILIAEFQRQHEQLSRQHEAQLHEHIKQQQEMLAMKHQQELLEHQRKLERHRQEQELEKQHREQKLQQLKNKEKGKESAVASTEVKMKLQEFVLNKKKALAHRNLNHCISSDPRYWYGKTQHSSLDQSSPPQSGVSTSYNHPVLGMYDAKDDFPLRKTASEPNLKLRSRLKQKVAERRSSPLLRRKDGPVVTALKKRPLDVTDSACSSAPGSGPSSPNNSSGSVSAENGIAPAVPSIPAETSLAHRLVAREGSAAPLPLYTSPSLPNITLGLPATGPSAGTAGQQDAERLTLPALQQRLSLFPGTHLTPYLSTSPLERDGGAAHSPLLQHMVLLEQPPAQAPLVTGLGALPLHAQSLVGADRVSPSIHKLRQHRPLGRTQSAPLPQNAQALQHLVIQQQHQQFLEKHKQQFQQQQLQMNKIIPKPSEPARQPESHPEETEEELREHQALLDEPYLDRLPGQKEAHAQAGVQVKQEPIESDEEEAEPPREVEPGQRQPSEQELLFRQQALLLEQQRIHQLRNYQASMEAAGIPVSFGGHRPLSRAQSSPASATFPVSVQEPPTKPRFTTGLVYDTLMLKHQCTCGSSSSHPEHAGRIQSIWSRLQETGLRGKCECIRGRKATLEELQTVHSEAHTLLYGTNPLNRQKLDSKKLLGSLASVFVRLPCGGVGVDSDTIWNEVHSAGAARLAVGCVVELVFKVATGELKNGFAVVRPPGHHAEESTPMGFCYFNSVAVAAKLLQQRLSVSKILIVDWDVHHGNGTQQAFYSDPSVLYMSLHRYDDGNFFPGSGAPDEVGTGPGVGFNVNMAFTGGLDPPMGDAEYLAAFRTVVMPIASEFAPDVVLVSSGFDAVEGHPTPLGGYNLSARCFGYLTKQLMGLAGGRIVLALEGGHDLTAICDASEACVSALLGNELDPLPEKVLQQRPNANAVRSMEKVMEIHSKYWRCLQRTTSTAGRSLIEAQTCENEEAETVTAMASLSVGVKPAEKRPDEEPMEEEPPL
Sequence of HDAC1 (Q13547 whole entry): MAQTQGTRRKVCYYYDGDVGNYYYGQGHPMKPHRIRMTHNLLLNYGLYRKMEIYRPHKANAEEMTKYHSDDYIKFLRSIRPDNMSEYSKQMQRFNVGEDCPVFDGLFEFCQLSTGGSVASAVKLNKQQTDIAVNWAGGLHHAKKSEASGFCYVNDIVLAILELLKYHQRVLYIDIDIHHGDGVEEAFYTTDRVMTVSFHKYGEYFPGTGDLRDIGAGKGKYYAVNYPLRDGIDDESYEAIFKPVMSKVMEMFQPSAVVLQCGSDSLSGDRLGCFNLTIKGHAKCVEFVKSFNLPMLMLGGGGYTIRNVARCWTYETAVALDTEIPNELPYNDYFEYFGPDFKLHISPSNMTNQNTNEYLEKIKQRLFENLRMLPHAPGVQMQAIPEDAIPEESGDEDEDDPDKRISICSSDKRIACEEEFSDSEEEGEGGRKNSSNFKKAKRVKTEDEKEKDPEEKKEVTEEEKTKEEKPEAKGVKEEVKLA
Sequence of HDAC2 (Q92769 whole entry): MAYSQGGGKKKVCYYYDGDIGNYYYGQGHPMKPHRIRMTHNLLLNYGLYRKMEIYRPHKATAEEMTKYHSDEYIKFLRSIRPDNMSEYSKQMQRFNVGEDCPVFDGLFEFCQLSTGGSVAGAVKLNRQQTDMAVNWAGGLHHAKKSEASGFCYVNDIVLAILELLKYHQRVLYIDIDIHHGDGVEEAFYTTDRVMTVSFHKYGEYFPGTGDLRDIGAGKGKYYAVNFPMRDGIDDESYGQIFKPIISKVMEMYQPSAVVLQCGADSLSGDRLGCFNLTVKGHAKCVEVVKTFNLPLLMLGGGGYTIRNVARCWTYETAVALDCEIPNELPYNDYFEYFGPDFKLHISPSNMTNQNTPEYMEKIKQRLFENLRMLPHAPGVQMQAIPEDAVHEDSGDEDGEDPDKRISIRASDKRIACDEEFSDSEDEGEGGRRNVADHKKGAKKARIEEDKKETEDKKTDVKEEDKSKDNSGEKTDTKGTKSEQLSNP
Sequence of HDAC3 (O15379 whole entry): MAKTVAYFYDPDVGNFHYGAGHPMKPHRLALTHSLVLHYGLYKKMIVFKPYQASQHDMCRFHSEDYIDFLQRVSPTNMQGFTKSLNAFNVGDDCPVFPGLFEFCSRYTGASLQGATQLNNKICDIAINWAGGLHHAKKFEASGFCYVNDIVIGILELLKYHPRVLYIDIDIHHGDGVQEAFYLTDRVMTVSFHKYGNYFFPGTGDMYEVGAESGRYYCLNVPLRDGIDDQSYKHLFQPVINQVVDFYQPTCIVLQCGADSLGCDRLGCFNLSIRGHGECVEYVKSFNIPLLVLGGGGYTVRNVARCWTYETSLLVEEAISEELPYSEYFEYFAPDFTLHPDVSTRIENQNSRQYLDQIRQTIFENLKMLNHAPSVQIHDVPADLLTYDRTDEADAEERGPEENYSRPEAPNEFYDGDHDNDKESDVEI
Sequence of HDAC3 (Q9Y618 395-489 partner limits assumed): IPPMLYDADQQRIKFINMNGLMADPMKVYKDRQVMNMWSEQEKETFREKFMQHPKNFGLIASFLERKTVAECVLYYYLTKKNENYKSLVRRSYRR

For the compound “4-dimethylamino-n-(6- hydroxycarbamoyethyl) benzamide-n-hydroxy-7-(4- dimethylaminobenzoyl) aminoheptanamide [MS-344]”, in assay [1] (setting [11]), the IC50 was 0.249 µM. Further, in [1], the pIC50 was 6.60.

`N[C@H](Cc1ccc(Cl)cc1Cl)C(=O)N1CCN(C(=O)c2ccc(F)cc2F)CC1` [0DI]: the IC50 in assay [1] (CTS, read-out: IC50) was 0.2 µM. The “Experimental pIC50” value in [1] (CTS) was 6.70.

As to `O=C(CCC1CCCC1)NO` [3YP, 3-cyclopentyl-n-hydroxypropanamide], in [2], the “Experimental pIC50” value is listed as 6.54 and the IC50 is 0.29 µM.

As for `Cn1cc(C(=O)Cc2ccccc2)cc1/C=C/C(=O)NO` [APHA8, (2E)-N-hydroxy-3-[1-methyl-4-(phenylacetyl)-1H-pyrrol-2-yl]prop-2-enamide], the “Bioactivity range (ΔpIC50) DpIC50” value in [3] amounted to 1.87. Further, the pIC50 in assay [4] and in assay [5] (training set composition) was 5.51 throughout. Further, the IC50 in assay [4] and in [5] (setting [12]) was 3.1 µM throughout.

For the compound `O=C(CCCCCCC(=O)C(F)(F)F)Nc1ccccc1` [CF3, 9,9,9-trifluoro-8-oxo-n-phenylnonanamide], in assay [2], the “Experimental pIC50” value is reported as 4.95 and the half-maximal inhibitory concentration (IC50) was 11.2 µM.

With `CC(C)(C)OC(=O)Nc1ccccc1-c1ccc(NC(=O)CCCCCCC(=O)NO)cc1` [CMC-7f], the “Exp. pIC50” value in assay [6] was 7.24; in [7], 7.13; in assay [8] (MTS inhibitors), 7.75; in assay [9] (setting [14]), 7.96; in assay [9] (setting [15]), 7.96; in [1] (MTS inhibitors), 5.76. Further, the “Exp. pIC50” value in assay [10] is 7.08. The IC50 was 0.057 µM in assay [6] (setting [13]); 0.074 µM in assay [7] (setting [13]); 0.018 µM in assay [8] (setting [13]); 0.011 µM in assay [9]; 1.72 µM in assay [1] (setting [13]); 0.083 µM in assay [10] (setting [13]).

For the compound `CC(C)(C)OC(=O)Nc1cccc(-c2csc(NC(=O)CCCCCCC(=O)NO)n2)c1` [CMC-25b], the “Exp. pIC50” value is given as 7.13 in [7], 9.70 in assay [9] (setting [14]), 9.70 in assay [9] (setting [15]) and 8.70 in assay [10]. The half-maximal inhibitory concentration (IC50) in [9] was 0.0002 µM; in [10] (setting [13]), 0.002 µM.

As to `CNC(=O)/C(CCCCCCC(=O)Nc1cccc(-c2ccc(Cl)nc2)c1)=N\O` [JMC-23], the 50% inhibitory concentration (IC50) in assay [1] (setting [13]) is 100 µM.

As to `C[C@@H](NC(=O)c1ccc(C(=O)C(F)(F)F)s1)c1ccccc1` [MCL08-3d], the “Exp. pIC50” value in assay [6] is reported as 6.50.

With `CN(c1ccc(C(=O)NO)cc1)S(=O)(=O)c1ccc(-c2ccccn2)s1` [NHB, N-hydroxy-4-{methyl[(5-pyridin-2-ylthiophen-2-yl)sulfonyl]amino}benzamide], the half-maximal inhibitory concentration (IC50) in assay [1] (setting [11]) was 0.175 µM. Also, the pIC50 in assay [1] is reported as 6.76.

With `CCCC(CCC)C(=O)O` [VALP, valproic acid], in [3], the “Bioactivity range (ΔpIC50) DpIC50” value came to 0.95. Besides, the pIC50exp in assay [6] (experimental value of modeled complex) and in [10] was 3 each time. The pIC50 in assay [6] (training set composition) and in assay [10] was 3.00 each time. The IC50 in assay [6] (setting [12]) and in assay [10] (setting [12]) was 1000 µM in each case.

For MS-275, the “Bioactivity range (ΔpIC50) DpIC50” value in assay [3] is 2.63.

On to Oxamflatin, for which the “Bioactivity range (ΔpIC50) DpIC50” value in assay [3] came out at 2.34. Besides, in assay [4], the negative-log IC50 (pIC50) is recorded as 7.52 and the 50% inhibitory concentration (IC50) was 0.03 µM. Moreover, in [10], the pIC50exp was 7.301 and the negative-log IC50 (pIC50) is 7.30. In addition, in assay [10] (setting [12]), the IC50 is 0.05 µM.

Take SCRIPTAID: in [3], the “Bioactivity range (ΔpIC50) DpIC50” value is on record as 2.76.
